Patent US20140357487A1, “PLANTS HAVING INCREASED TOLERANCE TO HERBICIDES” (BASF SE, priority 2011, published 2014)

Experiments:
[1] = system: transgenic Arabidopsis plants overexpressing Barley HPPD (Seq ID: 2); assay: Arabidopsis growth inhibition in 48-well plates, line overexpressing Barley HPPD; format: in vivo, Arabidopsis thaliana; settings: Barley (Seq ID: 2) overexpression line; plant growth IC50 of transgenic divided by that of wildtype plants
From the text: Various methods for the production of stably transformed plants are well known in the art. Coumarone-derivative herbicide tolerant soybean (Glycine max) or corn (Zea mays) plants can be produced by a method described by Olhoft et al. (US patent 2009/0049567). Briefly, HPPD or HST encoding polynucleotides are cloned into a binary vector using standard cloning techniques as described by Sambrook et al. (Molecular cloning (2001) Cold Spring Harbor Laboratory Press). The final vector construct contains an HPPD or HST encoding sequence flanked by a promoter sequence (e.g. the ubiquitin promoter (PcUbi) sequence) and a terminator sequence (e.g. the nopaline synthase terminator (NOS) sequence) and a resistance marker gene cassette (e.g. AHAS) (FIG. 2). Optionally, the HPPD or HST gene can provide the means of selection. Agrobacterium-mediated transformation is used to introduce the DNA into soybean's axillary meristem cells at the primary node of seedling explants. After inoculation and co-cultivation with Agrobacteria, the explants are transferred to shoot induction medium without selection for one week. […]
Depending on the species, the plants are kept at 10-25° C. or 20-35° C. […] During this time, the plants are tended and their response to the individual treatments is evaluated. […] Tolerance to coumarone-derivative herbicides can also be assessed in Arabidopsis. […]

[2] = system: transgenic soybean plants, Glycine Max HPPD, event SDS-10298; assay: Greenhouse testing of transgenic soybean plants, Glycine Max HPPD; format: in vivo; settings: soybean SDS-10298, 5 days after herbicide treatment, average of 8 T1
From the text: Various methods for the production of stably transformed plants are well known in the art. Coumarone-derivative herbicide tolerant soybean (Glycine max) or corn (Zea mays) plants can be produced by a method described by Olhoft et al. (US patent 2009/0049567). Briefly, HPPD or HST encoding polynucleotides are cloned into a binary vector using standard cloning techniques as described by Sambrook et al. (Molecular cloning (2001) Cold Spring Harbor Laboratory Press). The final vector construct contains an HPPD or HST encoding sequence flanked by a promoter sequence (e.g. the ubiquitin promoter (PcUbi) sequence) and a terminator sequence (e.g. the nopaline synthase terminator (NOS) sequence) and a resistance marker gene cassette (e.g. AHAS) (FIG. 2). Optionally, the HPPD or HST gene can provide the means of selection. Agrobacterium-mediated transformation is used to introduce the DNA into soybean's axillary meristem cells at the primary node of seedling explants. After inoculation and co-cultivation with Agrobacteria, the explants are transferred to shoot induction medium without selection for one week. The explants are subsequently transferred to shoot induction medium with 1-3 μM imazapyr (Arsenal) for 3 weeks to select for transformed cells. Explants with healthy callus/shoot pads at the primary node are then transferred to shoot elongation medium containing 1-3 μM imazapyr until a shoot elongates or the explant dies. After regeneration, transformants are transplanted to soil in small pots, placed in growth chambers (16 hr day/8 hr night; 25° C. day/23° C. night; 65% relative humidity; 130-150 mE m−2 s−1) and subsequently tested for the presence of the T-DNA via Taqman analysis. After a few weeks, healthy, transgenic positive, single copy events are transplanted to larger pots and allowed to grow in the growth chamber. Transformation of corn plants is done by a method described by McElver and Singh (WO 2008/124495). Plant transformation vector constructs containing HPPD or HST sequences are introduced into maize immature embryos via Agrobacterium-mediated transformation. Transformed cells are selected in selection media supplemented with 0.5-1.5 μM imazethapyr for 3-4 weeks. Transgenic plantlets are regenerated on plant regeneration media and rooted afterwards. Transgenic plantlets are subjected to TaqMan analysis for the presence of the transgene before being transplanted to potting mixture and grown to maturity in greenhouse. Arabidopsis thaliana is transformed with HPPD or HST sequences by floral dip method as described by McElver and Singh (WO 2008/124495). Transgenic Arabidopsis plants are subjected to Tag Man analysis for analysis of the number of integration loci. Transformation of Oryza sativa (rice) are done by protoplast transformation as described by Peng et al. (U.S. Pat. No. 6,653,529)
Transgenic plants expressing heterologous HPPD or HST enzymes are tested for tolerance against coumarone-derivative herbicides in greenhouse experiments.
For post emergence treatment, the test plants are first grown to a height of 3 to 15 cm, depending on the plant habit, and only then treated with the herbicides. For this purpose, the test plants are either sown directly and grown in the same containers, or they are first grown separately and transplanted into the test containers a few days prior to treatment.
Depending on the species, the plants are kept at 10-25° C. or 20-35° C. The test period extends over 3 weeks. During this time, the plants are tended and their response to the individual treatments is evaluated. […] Tolerance to coumarone-derivative herbicides can also be assessed in Arabidopsis. In this case transgenic Arabidopsis thaliana plants are assayed for improved tolerance to coumarone-derivative herbicides in 48-well plates. Seeds are surface sterilized by stirring for 5 min in ethanol+water (70+30 by volume), rinsing one time with ethanol+water (70+30 by volume) and two times with a sterile, deionized water. […]

Row | Compound | Tolerance factor [1] | Injury evaluation, scale of 1-100, bleaching phenotype ([2]; 6.25 g/ha) | Injury evaluation, scale of 1-100, bleaching phenotype ([2]; 25 g/ha) | Injury evaluation, scale of 1-100, bleaching phenotype ([2]; 100 g/ha) | Injury evaluation, scale of 1-100, bleaching phenotype ([2]; 2.5 g/ha) | Injury evaluation, scale of 1-100, bleaching phenotype ([2]; 10 g/ha) | Injury evaluation, scale of 1-100, bleaching phenotype ([2]; 40 g/ha)
1 | CC1=NOC(c2c(Cl)ccc(C3=C(O)c4ncccc4C(C)(C)S3(=O)=O)c2Cl)C1 (centres unmarked) [Inhibitor 1, 7-[2,4-dichloro-3-(3-methyl-4,5-dihydroisoxazol-5-yl)phenyl]-5,5-dimethyl-6,6-dioxo-thiopyrano[4,3-b]pyridin-8-ol] | 10 | – | – | – | – | – | –
2 | Cc1c(C(=O)c2cnn(C)c2O)ccc(S(C)(=O)=O)c1C1=NOCC1 [Topramezone, reference compound] | – | 7 | 18 | 28 | – | – | –
3 | CC1(C)c2cccnc2C(O)=C(c2ccc(Cl)nc2Cl)S1(=O)=O [Inhibitor 2, 7-(2,6-dichloro-3-pyridyl)-5,5-dimethyl-6,6-dioxo-thiopyrano[4,3-b]pyridin-8-ol] | 3 | – | – | – | 4 | 5 | 17
